Source: paper PMC8190750 (Cell Research, 2021)
pIC50: −log10 of the molar value. Numbered stars: 1 amine (or outer) side, 2 acyl side, 3 side chain; on linkers, the order of the positions; unused ones are H or OH. Bridge positions count the residues as written; N and C are the ends. Square brackets hold non-standard residues; d marks the D form. Peptide text beside a SMILES is read from it. * marks the point of attachment. X1 = CC[C@H](C)[C@@H](N[*:1])[C@@H](O)CC(=O)O[C@H](C(=O)[C@H](C)C(=O)[*:2])C(C)C; NMeY = CN[C@@H](Cc1ccc(O)cc1)C(=O)O; dNMeL = CN[C@H](CC(C)C)C(=O)O; Pyruvoyl = CC(=O)C(=O)*

Tests used:
SARS-CoV-2 [1] = conditions: in vivo; cited from earlier work
2-E channels = 2-E channels (Severe acute respiratory syndrome coronavirus 2, UniProt P0DTC4); type: biochemical, SARS-CoV-2
SARS-CoV-2 [2] = conditions: in vivo; cited from earlier work; remark: listed apart in the source
SARS-CoV-2 [3] = conditions: in vivo; cited from earlier work; remark: listed apart in the source
[4] = tested on: 2-E-induced cell death in Vero E6 cells; type: cell-based, African green monkey; conditions: read-out: IC50 Cell protection
SARS-CoV-2 [5] = type: cell-based; conditions: read-out: IC50 Anti-virus

Sequence of 2-E channels (P0DTC4 whole entry, looked up): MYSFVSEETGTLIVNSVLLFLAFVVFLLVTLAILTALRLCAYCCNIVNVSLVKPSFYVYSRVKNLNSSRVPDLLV

## OC(c1cc(C(F)(F)F)nc2c(C(F)(F)F)cccc12)C1CCCCN1 (stereo not shown) [mefloquine]
SARS-CoV-2 [1]
  prophylactic effects on viral replication and lung injuries: good prophylactic effects

## NC1=N[C@H](O)[C@H]2[C@H]3O[C@]4(O)O[C@@H]([C@@H](O)[C@@]2(N1)[C@@H]4O)[C@]3(O)CO [Tetrodotoxin]
2-E channels
  effects on 2-E channels: negligible effects

## 5-(N, N-hexamethylene)-amiloride [HMA]
2-E channels
  concentration with inhibitory activity on 2-E channels: ≥ 50 µM
Vero E6 cells
  cytotoxicity (in words): strong cytotoxicity

## NC12CC3CC(CC(C3)C1)C2 [amantadine]
2-E channels
  concentration with inhibitory activity on 2-E channels: ≥ 50 µM

## COC(=O)C1=C(C)NC(C)=C(C(=O)OC)C1c1ccccc1[N+](=O)[O-] [Nifedipine]
2-E channels
  effects on 2-E channels: negligible effects

## CCC(CC)COC(=O)[C@H](C)N[P@](=O)(OC[C@H]1O[C@@](C#N)(c2ccc3c(N)ncnn23)[C@H](O)[C@@H]1O)Oc1ccccc1 [remdesivir]
SARS-CoV-2 [2]
  virus loading in the respiratory tract: cannot reduce the virus loading in the respiratory tract

## CC[C@H](C)[C@H]1NC(=O)[C@@H](NC(=O)[C@@H](CC(C)C)N(C)C(=O)[C@@H]2CCCN2C(=O)C(C)=O)[C@@H](C)OC(=O)[C@H](Cc2ccc(OC)cc2)N(C)C(=O)[C@@H]2CCCN2C(=O)[C@H](CC(C)C)NC(=O)[C@@H](C)C(=O)[C@H](C(C)C)OC(=O)C[C@@H]1O [plitidepsin] (Pyruvoyl-P[dNMeL]T[X1]LP[NMeY](Me); ester 3-C)
SARS-CoV-2 [1]
  prophylactic effects on viral replication and lung injuries: good prophylactic effects

## CCN(CCO)CCCC(C)Nc1ccnc2cc(Cl)ccc12 (stereo not shown) [hydroxychloroquine]
SARS-CoV-2 [3]
  virus loading or titers in the respiratory tissues: failed to reduce virus loading or titers in the respiratory tissues

## Berbamine [BE-12]
[4]
  pIC50: 4.46
SARS-CoV-2 [5]
  pIC50: 4.84

## CN[C@H]1C(=O)N[C@@H]2Cc3ccc(cc3)Oc3cc4cc(c3O[C@@H]3O[C@H](C(=O)O)[C@@H](O)[C@H](O)[C@H]3NC(=O)CCCCCCCCC(C)C)Oc3ccc(cc3Cl)[C@@H](O)[C@@H]3NC(=O)[C@H](NC(=O)[C@@H]4NC(=O)[C@@H](NC2=O)c2cc(cc(O)c2Cl)Oc2cc1ccc2O)c1ccc(O)c(c1)-c1c(O[C@H]2O[C@H](CO)[C@@H](O)[C@H](O)[C@@H]2O)cc(O)cc1[C@@H](C(=O)NCCCN(C)C)NC3=O [dalbavancin]
SARS-CoV-2 [1]
  prophylactic effects on viral replication and lung injuries: good prophylactic effects

## CC[N+](CC)(CC)CC [Tetraethylammonium]
2-E channels
  effects on 2-E channels: negligible effects
